Laboratory results taken from patent US9434753B2, “Modified creatine compounds” (Gencia Corporation, priority 2011, dated 2016).
“Also recorded” adds a separate entry of the source.

Assays:
[1] = test system: recombinant CPK (Native Human Creatine Kinase); assay: Determination of CPK activity (ATP hydrolysis/consumption, luciferase); assay type: biochemical; conditions: 5 mM compound or creatine, 1 mM ATP, CPK 10 units/well, compound 1 compared with equimolar creatine
Procedure: Disclosed herein is an in vitro assay for determining the activity of recombinant CPK on the modified creatine compounds. Recombinant CPK is mixed with ATP and a modified creatine compound of interest. ATP hydrolysis, a measure of the rate of transfer of the gamma phosphate from ATP to the guanidinium groups of the creatine subunit, was measured using luciferase. The rate of ATP hydrolysis/consumption for the modified creatine compound is then compared to the rate of ATP hydrolysis/consumption for creatine. An in vitro assay was performed to determine the activity of recombinant CPK on the modified creatine compounds (CK, Native Human Creatine Kinase from Cell Sciences Catalog No: CSI14786B). Recombinant CPK (10 units/well) is mixed with 1 mM ATP and the compound of example 1 (compound 1) at varying concentrations (5 mM, 2.5 mM, and 1 mM) or creatine (5 mM). ATP hydrolysis; a measure of the rate of transfer of the gamma phosphate from ATP to the guanidinium groups of the creatine subunit was then measured for each sample using luciferase. Luciferase is then added (GLO kit from Promega) according to manufacturer instructions. As ATP is consumed, light is emitted. Every 2 minutes we collected the emitted light in our plate reader in lumens. The data is collected over 30 minutes to generate a slope. The slope is a measure of ATP consumption. […]

[2] = test system: HepG2 human liver carcinoma cells; assay: Oxygen consumption rate (OCR) in HepG2 cells; assay type: cell-based; conditions: control is 100
Procedure: (§1) In this assay, an XF24 extracellular flux analyzer (Seahorse Bioscience, North Billerica, Mass.) was used to measure mitochondrial oxygen consumption in intact cells. The XF24 analyzer creates a transient 7 μl chamber in specialized microplates that allows determination of oxygen and proton concentrations in real time through the measurement of oxygen sensitive dyes by the XF24 instrument. 24 hours prior to OCR measurement, fibroblasts were seeded into 20 wells of the 24 well tissue culture plate while 1 ml of XF Calibrant solution (Seahorse Bioscience, North Billerica, Mass.) was added to each well of a 24 well dual-analyte sensor cartridge (Seahorse Bioscience, North Billerica, Mass.). The sensor cartridge repositioned on the 24 well calibration plate, and the plate was incubated overnight at 37° C. without additional CO2.
The day of the experiment, the injection ports on the sensor cartridge were loaded with compound 1 or creatine as indicated at 10× concentrations and placed into the XF24 Flux Analyzer for automated calibration. During the sensor calibration, cells in each of the tissue culture well were rinsed once in 1 mL of unbuffered media. 675 μL of unbuffered media was then added to each well, and the plate was incubated for an hour in the absence of additional CO2. Plates were subsequently placed into the calibrated seahorse XF24 flux analyzer for bioenergetic analysis. An equivalent number of cells per well are plated using a cell counter. Further normalization is achieved by taking baseline measurements of OCR on a well-by-well basis, and the increase observed is a comparison to the same well prior to treatment. Thus each well serves as its own control.
Using the same procedure, the oxygen consumption rate (OCR) for additional compounds were measure in HepG2 human liver carcinoma cells. Compounds were added in concentrations ranging from 0.25 nM to 200 nM.

fibroblasts = assay: Oxygen consumption rate (OCR), XF24 extracellular flux analyzer, fibroblasts; assay type: cell-based; conditions: 5 nM to 500 nM, within thirty minutes of treatment, compared to 10 μM unmodified creatine
Procedure: as §1, with “CO2. The day of the experiment, the injection ports on the sensor cartridge were loaded with compound 1 or creatine as indicated at 10× concentrations and placed into the XF24 Flux Analyzer for automated calibration. During the sensor calibration, cells in each of the tissue culture well were rinsed once in 1 mL of unbuffered media. 675 μL of unbuffered media was then added to each well, and the plate was incubated for an hour in the absence of additional CO2. Plates were subsequently placed into the calibrated seahorse XF24 flux analyzer for bioenergetic analysis. […]” for “CO2.”

Complex I = Complex I (CI) activity microplate assay in treated fibroblasts; assay type: cell-based; conditions: 25 nM, within thirty minutes, compared to 10 μM unmodified creatine
Procedure: Complex I activity was determined using a CI microplate assay (MS 141) from MitoSciences (Eugene, Oreg.) according to the manufacturer's protocol. Fibroblasts were plated in T75 flasks. 24 hours after plating, the cells were treated with various concentrations of compound of example 1 in media for 30 min. The cells were then lysed, and the mitochondria were isolated using reagents provided in the CI assay kit according to the manufacturer's protocol. After determination of the protein concentrations, 20 μg of the purified mitochondria in a total volume of 200 μl was added in quadruplicate to the 96-well microplate and the CI enzyme was immunocaptured within the wells. CI activity was measured colorimetrically with a PHERAstar FS (BMG LABTECH Inc, Cary, N.C., USA) as a change in the absorbance following the oxidation of NADH to NAD+ and the simultaneous reduction of a dye which leads to increased absorbance at 450 nm over time (0-105 min). The average±SD of the quadruplicate values for each time point and treatment group were graphed, and the rate of CI activity was determined by the initial slope (i.e., values in the linear range from 20 to 50 min), expressed as change in optical density per minute.

CN(CC(=O)O)C(=N)N [creatine, 2-(carbamimidoyl-methyl-amino) acetic acid]
rate of ATP hydrolysis/consumption [1]: increase in ATP hydrolysis/consumption

CN(CCCC(=O)NCCCC[P+](c1ccccc1)(c1ccccc1)c1ccccc1)C(=N)N.O=C(O)C(F)(F)F.O=C([O-])C(F)(F)F [Example 6, {4-[(4-{[ammonio(imino)methyl](methyl)amino}butanoyl)amino]butyl}(triphenyl)phosphonium bis(trifluoroacetate)]
OCR ([2]; 0.25 nM): 121%

CN(CCC(=O)NCCCC[P+](c1ccccc1)(c1ccccc1)c1ccccc1)C(=N)N.O=C(O)C(F)(F)F.O=C([O-])C(F)(F)F [Example 5, N^3-[ammonio(imino)methyl]-N^3-methyl-N-[4-(triphenylphosphonio)butyl]-O-alaninamide bis(trifluoroacetate)]
OCR ([2]; 10 nM): 117.9%

CN(CCC(C)(C)C(=O)NCCCC[P+](c1ccccc1)(c1ccccc1)c1ccccc1)C(=N)N.O=C(O)C(F)(F)F.O=C([O-])C(F)(F)F [Example 7, {4-[(4-{[ammonio(imino)methyl](methyl)amino}-2,2-dimethylbutanoyl)amino]butyl}(triphenyl)phosphonium bis(trifluoroacetate)]
OCR ([2]; 20 nM): 112%

CN(CC(=O)N(C)CCC[P+](c1ccccc1)(c1ccccc1)c1ccccc1)C(=N)N [Example 2, N^2-[ammonio(imino)methyl]-N,N^2-dimethyl-N-[3-(triphenylphosphonio)propyl]glycinamide bis(trifluoroacetate)]
OCR ([2]; 10 nM): 106%

CN(CC1(C(=O)NCCC[P+](c2ccccc2)(c2ccccc2)c2ccccc2)CCOCC1)C(=N)N.O=C(O)C(F)(F)F.O=C([O-])C(F)(F)F [Example 9, [3-({[4-({[ammonio(imino)methyl](methyl)amino}methyl)tetrahydro-2H-pyran-4-yl]carbonyl}amino)propyl](triphenyl)phosphonium bis(trifluoroacetate)]
OCR ([2]; 2.5 nM): 121.9%

CN(CC(=O)NCCC[P+](c1ccccc1)(c1ccccc1)c1ccccc1)C(=N)N [Example 1, N^2-[ammonio(imino)methyl]-N^2-methyl-N-[3-(triphenylphosphonio)propyl]glycinamide bis(trifluoroacetate)]
rate of ATP hydrolysis/consumption ([1]; bis(trifluoroacetate)): higher rate of ATP hydrolysis/consumption relative to creatine; also recorded: significantly higher rate of ATP hydrolysis/consumption than creatine | oxygen consumption rate (fibroblasts): significant increase in oxygen consumption rate | OCR ([2]; 10 nM): 124% | Complex I activity (change in optical density per minute) (Complex I): significant increase in Complex I activity

CN(CC1(C(=O)NCCC[P+](c2ccccc2)(c2ccccc2)c2ccccc2)CC1)C(=N)N.O=C(O)C(F)(F)F.O=C([O-])C(F)(F)F [Example 8, [3-({[1-({[ammonio(imino)methyl](methyl)amino}methyl)cyclopropyl]carbonyl}amino)propyl](triphenyl)phosphonium bis(trifluoroacetate)]
OCR ([2]; 2.5 nM): 115.7%
